Laboratory results as given in patent publication US20200297820A1, “STIMULATION OF HUMAN MEIBOMIAN GLAND FUNCTION” (The Schepens Eye Research Institute, Inc., priority 2013, published 2020).

Columns and labels:
[1] = tested on: immortalized human meibomian gland epithelial cells; assay: LipidTOX green neutral lipid staining (lipid accumulation); format: cell-based; conditions: for lipid accumulation: 10^−8 M
Procedure: (§1) As an example of these experiments, immortalized human meibomian gland epithelial cells were cultured in the presence or absence of 10% fetal bovine serum. Cells were treated with an ethanol vehicle or azithromycin (10 μg/ml; Santa Cruz Biotechnology) for varying time periods. Cellular morphological appearance was recorded, cells were counted with a hemocytometer, and lipid accumulation was assessed by staining the cells with LipidTOX green neutral lipid stain (Invitrogen, Grand Island, N.Y.), according to reported methods. Staining fluorescent intensities were quantified by using ImageJ (http://rsbweb.nih.gov/ij/index.html). Statistical analyses were performed with Student's t-test (two-tailed, unpaired).
(§2) Immortalized human meibomian gland epithelial cells (IHMGECs; passages 20-22) were cultured in the presence or absence of 10% fetal bovine serum. Cells were treated with the ethanol vehicle or azithromycin (10 μg/mL) for varying periods. Cellular morphological appearance was recorded, cells were counted with a hemocytometer, and lipid accumulation was assessed by staining cells with LipidTOX green neutral lipid stain (Invitrogen Corp). Staining fluorescent intensities were quantified using ImageJ software (http://rsbweb.nih.gov/ij/index.html). Statistical analyses were performed with t test (2-tailed, unpaired).
Cell numbers were enumerated with a hemocytometer. Cellular lipid and lysosome accumulation were examined by staining cells with: Filipin III (a fluorometric probe for identifying unesterified cholesterol), LipidTOX green neutral lipid stain, and LysoTracker® Red DND-99 (a fluorescent technique designed for labeling acidic organelles such as lysosomes). Lysosomal lamellar bodies were identified by transmission electron microscopy. In brief, after culture and treatment on 24 mm polycarbonate membrane transwell inserts (0.4 μm pore size), cells were fixed in a solution of 2% formaldehyde+2.5% glutaraldehyde, in 0.08 M sodium cacodylate buffer, pH 7.4, post-fixed with 2% osmium tetroxide in 0.1 M sodium cacodylate buffer, and stained en bloc with 2% aqueousuranyl acetate. […] Cross sections (1 μM) were stained with 1% toluidine blue in 1% sodium tetraborate solution. Ultra-thin sections (60-90 nm) were imaged with a transmission electron microscope interfaced with a digital CCD camera. For biochemical assessments, cellular lipids were extracted with chloroform and methanol from samples with the same amount of protein. Lipids were then evaluated with high-performance thin-layer chromatography. With regard to the staining results, three Filipin, five LipidTox and four LysoTracker studies were conducted, and each experiment was performed in duplicate. Four random pictures were taken of each group, and four random areas were selected for the measurement of fluorescent intensities. The HPTLC experiments were performed in duplicate more than three times. Image data were quantified with ImageJ (http://rsbweb.nib.gov/ij/index.html). Electron microscopic analyses were performed in triplicate.
The experiment included green neutral lipid staining. Immortalized human meibomian gland epithelial cells were cultured in slides treated to facilitate cell growth in FBS-containing medium in the presence or absence of IGF-1, anti-IGF-1R, and/or GH. Media were replaced every 2 to 3 days for a total of 6 days, at which time cells were washed and fixed in 4% paraformaldehyde for 30 minutes. After additional washes, cells were stained with green neutral lipid stain in a humid chamber for 30 minutes. Coverslips were mounted on slides with an antifade reagent that contains 4′,6-diamidino-2-phenylindole nuclear stain and permitted to dry overnight before imaging with a microscope. Fluorescence intensity was quantified using image-processing software.

[2] = tested on: immortalized human meibomian gland cells; assay: 13-cis RA-induced late apoptosis/necrosis; format: cell-based
[3] = tested on: human meibomian gland epithelial cells; assay: Immunoblot of signaling pathways (Akt, FoxO1, ERK, JAK2/STAT5); format: cell-based
Procedure: The disclosure turns now to sodium dodecyl sulfate-polyacrylamide gel, electrophoresis, and immunoblots. Cells were directly lysed in Laemmli buffer supplemented with 1% protease inhibitor cocktail (Sigma-Aldrich) and 5% β-mercaptoethanol (Sigma-Aldrich). Lysates were heated at 95° C. for 10 minutes, separated by sodium dodecyl sulfate-polyacrylamide gel electrophoresis on 10% Tris-glycine precast gels, and transferred to polyvinylidene difluoride membranes. Rabbit or mouse antibodies used were specific for phosphorylated Akt (p-Akt), pan-Akt, p-FoxO1, FoxO1, p-JAK2, JAK2, and β-actin; for p-ERK, ERK-2, STAT5, and the precursor form of SREBP-1; and for p-STAT5. Membranes were blocked with 5% bovine serum albumin in Tris-buffered saline containing 0.01% polysorbate 20. All primary antibodies were diluted to 1:1000 in blocking buffer except for p-Akt (1:4000), p-ERK (1:2000), ERK-2 (1:4000), SREBP-1 (1:200), and β-actin (1:10 000). Horseradish peroxidase-conjugated secondary antibodies were goat anti-rabbit IgG and Fc-specific goat anti-mouse IgG diluted to 1:5000. Proteins were visualized with enhanced chemiluminescent substrate or with ultrasensitive chemiluminescent substrate. Densitometry was performed with image-processing software.
To determine whether IGF-1 promotes the phosphorylation of Akt in human meibomian gland epithelial cells, cells were cultured under proliferating or differentiating conditions and then exposed to IGF-1 for 15 minutes.
FIGS. 9a, 9b, and 9c illustrate the effects of insulin-like growth factor 1 (IGF-1) and growth hormone (GH) on signaling pathways in human meibomian gland epithelial cells. Cells were cultured in keratinocyte serum-free medium containing epidermal growth factor (EGF) and bovine pituitary extract (BPE) for 2 days and then keratinocyte serum-free medium alone overnight or were cultured in 10% fetal bovine serum (FBS) medium for 5 to 7 days and in 1% FBS medium overnight. Cells were then incubated with vehicle or a 10 μM concentration of LY294002 for 2 hours, followed by IGF-1 or GH treatment for 15 minutes. Cell lysates were evaluated on immunoblotting. […] These experiments were repeated at least 3 times with similar results.
To assess whether GH activates Akt, FoxO1, ERK-2, or its classic (i.e., JAK2 and STAT5) signaling pathways in human meibomian gland epithelial cells, cells were cultured in proliferating or differentiating media, and were exposed to a 10 nM concentration of GH for 15 minutes, and processed for immunoblot analyses. […]

[4] = tested on: immortalized human meibomian gland epithelial cells; assay: Cell proliferation, cells counted with a hemocytometer; format: cell-based; conditions: insulin
Procedure: as §1, §2
Regarding cell proliferation assay, the human meibomian gland epithelial cells and LNCaP cells were cultured in 12-well plates in designated media and then exposed to IGF-1 or GH for defined periods. At experimental termination, cells were trypsinized and counted with a hemocytometer.
FIGS. 10a, 10b, and 10c illustrate the influence of IGF-1 on the proliferation of human meibomian gland epithelial cells. Cells were cultured (100,000 cells/well in 12-well plates, 3 wells per group) in basal, proliferating, and/or differentiating media and treated with IGF-I for 2 to 6 days. […] P values are for post hoc comparison compared with the control value. […] ANOVA indicates analysis of variance; EGF-BPE, epidermal growth factor-bovine pituitary extract; KSFM, keratinocyte serum-free medium. All comparisons are with control value. Whiskers mark SEM. aP<0.05 compared with the control value, post hoc test.

[5] = one trial; cited from earlier work

## CC(=O)[C@H]1CC[C@H]2[C@@H]3CCC4=CC(=O)CC[C@]4(C)[C@H]3CC[C@]12C [progesterone]
[1]
  lipid accumulation: marked lipid accumulation

## CC1=C(/C=C/C(C)=C/C=C/C(C)=C\C(=O)O)C(C)(C)CCC1 [13-cis RA]
[2]
  induction of late apoptosis/necrosis: induced late apoptosis/necrosis

## C[C@]12CCC(=O)C[C@@H]1CC[C@@H]1[C@@H]2CC[C@]2(C)[C@@H](O)CC[C@@H]12 [Dihydrotestosterone]
[1]
  lipid accumulation: marked lipid accumulation
[3]
  phosphorylation of extracellular-signal-regulated kinases (ERKs): increase the phosphorylation

## Insulin: insulin, an IGF-1 analogue
[1]; insulin
  accumulation of neutral lipids: promotes meibomian gland epithelial cell accumulation of neutral lipids
[3]; cells in serum-containing medium 5-7 days before treatment
  activation of AKT signaling pathway: dose-dependent manner
[4]
  cell proliferation: promotes meibomian gland epithelial cell proliferation

B1: figitumumab: human IgG2 monoclonal antibody that prevents the binding of IGF-1 to its receptor (antibody, chains of the INN, looked up)
heavy: EVQLLESGGGLVQPGGSLRLSCTASGFTFSSYAMNWVRQAPGKGLEWVSAISGSGGTTFYADSVKGRFTISRDNSRTTLYLQMNSLRAEDTAVYYCAKDLGWSDSYYYYYGMDVWGQGTTVTVSSASTKGPSVFPLAPCSRSTSESTAALGCLVKDYFPEPVTVSWNSGALTSGVHTFPAVLQSSGLYSLSSVVTVPSSNFGTQTYTCNVDHKPSNTKVDKTVERKCCVECPPCPAPPVAGPSVFLFPPKPKDTLMISRTPEVTCVVVDVSHEDPEVQFNWYVDGVEVHNAKTKPREEQFNSTFRVVSVLTVVHQDWLNGKEYKCKVSNKGLPAPIEKTISKTKGQPREPQVYTLPPSREEMTKNQVSLTCLVKGFYPSDIAVEWESNGQPENNYKTTPPMLDSDGSFFLYSKLTVDKSRWQQGNVFSCSVMHEALHNHYTQKSLSLSPG
light: DIQMTQFPSSLSASVGDRVTITCRASQGIRNDLGWYQQKPGKAPKRLIYAASRLHRGVPSRFSGSGSGTEFTLTISSLQPEDFATYYCLQHNSYPCSFGQGTKLEIKRTVAAPSVFIFPPSDEQLKSGTASVVCLLNNFYPREAKVQWKVDNALQSGNSQESVTEQDSKDSTYSLSSTLTLSKADYEKHKVYACEVTHQGLSSPVTKSFNRGEC
[5]
  most common adverse effect: DED
